Several values for one entry are separate records, joined by “and”; a condition that tells them apart may be missing. Identical values can stand only once.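 These data come from cells grown in 96-well plates and exposed to compound for 48 hours at five concentrations. At the GI50, growth is halved. TGI denotes the concentration required for complete inhibition of growth.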
Assays:
Test in all cases: inhibition of tumour cell growth, NCI panel, 48 h
UACC-62 melanoma = test system: UACC-62 melanoma
UACC-257 melanoma = test system: UACC-257 melanoma
CCRF-CEM leukemia = test system: CCRF-CEM leukemia
HOP-92 NSCLC = test system: HOP-92 NSCLC
M14 melanoma = test system: M14 melanoma
RPMI-8226 leukemia = test system: RPMI-8226 leukemia
OVCAR-5 ovarian = test system: OVCAR-5 ovarian
MCF7 breast = test system: MCF7 breast
SF-539 CNS = test system: SF-539 CNS
T-47D breast = test system: T-47D breast

## O=c1c(Cc2ccc3c(c2)OCO3)nnc2sc(-c3cc(F)c(Cl)cc3Cl)nn12
UACC-62 melanoma
  GI50: 75.8 µM
  TGI: > 100 µM
UACC-257 melanoma
  GI50: 62.5 µM
  TGI: > 100 µM
CCRF-CEM leukemia
  GI50: 33.9 µM
  TGI: > 100 µM
HOP-92 NSCLC
  GI50: 23 µM
  TGI: 88.4 µM
M14 melanoma
  GI50: > 100 µM
  TGI: > 100 µM
RPMI-8226 leukemia
  GI50: 30.6 µM
  TGI: > 100 µM
OVCAR-5 ovarian
  GI50: 46.6 µM
  TGI: > 100 µM
MCF7 breast
  GI50: 38.9 µM
  TGI: > 100 µM

## C1=CC(=P(c2ccccc2)(c2ccccc2)c2ccccc2)C=C1
UACC-62 melanoma
  TGI: 20 µM
UACC-257 melanoma
  TGI: 20.3 µM
CCRF-CEM leukemia
  TGI: 13.4 µM
HOP-92 NSCLC
  TGI: 22.8 µM
SF-539 CNS
  TGI: 29.1 µM
M14 melanoma
  TGI: 24.3 µM
RPMI-8226 leukemia
  TGI: 11 µM
OVCAR-5 ovarian
  TGI: 28.6 µM

## COc1ccc2[nH]c(C(=O)N3CCN(C(=O)OCc4ccc5c(Cl)cc(Cl)c(O)c5n4)CC3)cc2c1
UACC-62 melanoma
  GI50: 1.28 µM
  TGI: 2.59 µM
UACC-257 melanoma
  GI50: 1.41 µM
  TGI: 2.8 µM
CCRF-CEM leukemia
  GI50: 0.275 µM
  TGI: 1.67 µM
HOP-92 NSCLC
  GI50: 0.864 µM
  TGI: 2.4 µM
SF-539 CNS
  GI50: 1.31 µM
  TGI: 2.58 µM
M14 melanoma
  GI50: 1.15 µM
  TGI: 2.6 µM
RPMI-8226 leukemia
  GI50: 0.281 µM
  TGI: 0.962 µM
OVCAR-5 ovarian
  GI50: 1.61 µM
  TGI: 3.08 µM

## O=C(CC1=Nc2nnc(CCCCCCCc3nnc4n3C(=O)C(CC(=O)c3ccc5ccccc5c3)=N4)n2C1=O)c1ccc2ccccc2c1
UACC-62 melanoma
  TGI: > 100 µM
UACC-257 melanoma
  TGI: > 100 µM
CCRF-CEM leukemia
  TGI: > 100 µM
HOP-92 NSCLC
  TGI: > 100 µM
SF-539 CNS
  TGI: > 100 µM
M14 melanoma
  TGI: > 100 µM
RPMI-8226 leukemia
  TGI: > 100 µM
OVCAR-5 ovarian
  TGI: > 100 µM

## COc1ccc(-c2nc3ccccc3s2)cc1OC
UACC-62 melanoma
  TGI: > 100 µM
UACC-257 melanoma
  TGI: > 100 µM
CCRF-CEM leukemia
  TGI: > 100 µM
HOP-92 NSCLC
  TGI: > 100 µM
SF-539 CNS
  TGI: > 100 µM
M14 melanoma
  TGI: > 100 µM
RPMI-8226 leukemia
  TGI: > 100 µM
OVCAR-5 ovarian
  TGI: > 100 µM

## Cc1cc2c(c(C(=O)O)c1C)-c1cccc(Cl)c1C2=O
UACC-62 melanoma
  TGI: > 100 µM
UACC-257 melanoma
  TGI: > 100 µM
CCRF-CEM leukemia
  TGI: > 100 µM
M14 melanoma
  TGI: > 100 µM
RPMI-8226 leukemia
  TGI: > 100 µM
OVCAR-5 ovarian
  TGI: > 100 µM

## CSc1nc(Nc2cccc(NC(=O)CCl)c2)c(C#N)c(-c2cccc([N+](=O)[O-])c2)n1
UACC-62 melanoma
  GI50: 1.35 µM
  TGI: 3.17 µM
UACC-257 melanoma
  GI50: 2.18 µM
  TGI: 5.2 µM
CCRF-CEM leukemia
  GI50: 0.34 µM
  TGI: > 100 µM
HOP-92 NSCLC
  GI50: 1.92 µM
  TGI: 7.07 µM
SF-539 CNS
  GI50: 0.216 µM
  TGI: 0.528 µM
M14 melanoma
  GI50: 2.01 µM
  TGI: 6.08 µM
RPMI-8226 leukemia
  GI50: 2.1 µM
  TGI: 5.6 µM
OVCAR-5 ovarian
  GI50: 2.45 µM
  TGI: 6.13 µM
MCF7 breast
  GI50: 0.74 µM
  TGI: 2.44 µM

## c1ccc2c(c1)[nH]c1c2nc2ccccn21
UACC-62 melanoma
  TGI: > 100 µM
UACC-257 melanoma
  TGI: > 100 µM
CCRF-CEM leukemia
  GI50: 48.4 µM and > 100 µM
  TGI: > 100 µM
HOP-92 NSCLC
  TGI: > 100 µM
SF-539 CNS
  TGI: > 100 µM
M14 melanoma
  TGI: > 100 µM
RPMI-8226 leukemia
  TGI: > 100 µM
OVCAR-5 ovarian
  TGI: > 100 µM

## Cc1c(C)c([N+](=O)[O-])c2c(c1N)C(=O)c1ccccc1C2=O
UACC-62 melanoma
  TGI: > 100 µM
UACC-257 melanoma
  TGI: > 100 µM
CCRF-CEM leukemia
  TGI: > 100 µM
HOP-92 NSCLC
  TGI: > 100 µM
SF-539 CNS
  TGI: > 100 µM
M14 melanoma
  TGI: > 100 µM
RPMI-8226 leukemia
  TGI: > 100 µM
OVCAR-5 ovarian
  TGI: > 100 µM

## CC(=O)N1[C@H](C(=O)O)CS[C@H]1c1ccc(F)cc1
UACC-257 melanoma
  TGI: > 100 µM
CCRF-CEM leukemia
  TGI: > 100 µM
HOP-92 NSCLC
  TGI: > 100 µM
SF-539 CNS
  TGI: > 100 µM
M14 melanoma
  TGI: > 100 µM
OVCAR-5 ovarian
  TGI: > 100 µM

## CCN(CC)C(=S)SSC(C)C
UACC-62 melanoma
  GI50: 16.7 µM
  TGI: 35.4 µM
UACC-257 melanoma
  GI50: 21.7 µM
  TGI: 95.8 µM
CCRF-CEM leukemia
  GI50: 4.26 µM
  TGI: 30.8 µM
HOP-92 NSCLC
  GI50: 15.2 µM
  TGI: 36.1 µM
T-47D breast
  GI50: 14.2 µM
  TGI: 33.7 µM
SF-539 CNS
  GI50: 18.4 µM
  TGI: 42.9 µM
M14 melanoma
  GI50: 6.1 µM
  TGI: 20.6 µM
RPMI-8226 leukemia
  GI50: 1.94 µM
  TGI: 18.4 µM
OVCAR-5 ovarian
  GI50: 18.3 µM
  TGI: 32.6 µM

## COc1cc2c(cc1OCCNC(=O)/C=C1\C[C@H]3C=Nc4cc(OCc5ccccc5)c(OC)cc4C(=O)N3C1)N=C[C@@H]1CCCN1C2=O
UACC-62 melanoma
  GI50: 2.65 µM
  TGI: 9.92 µM
T-47D breast
  GI50: 2.77 µM
  TGI: 55.9 µM
M14 melanoma
  GI50: 10.4 µM
  TGI: 28.8 µM
RPMI-8226 leukemia
  GI50: 1.18 µM
  TGI: 2.74 µM
OVCAR-5 ovarian
  GI50: 4.07 µM
  TGI: 26.3 µM
MCF7 breast
  GI50: 2.62 µM
  TGI: 9.2 µM

## COC1=CC(c2ccc[nH]2)=N/C1=C\c1[nH]c(C)c(C(=O)CCCCCCCCC(=O)O[C@H]2CC[C@H]3C4CCc5cc(O)ccc5C4CC[C@]23C)c1C (stereo partly drawn)
UACC-62 melanoma
  GI50: 0.182 µM
  TGI: 1.09 µM
UACC-257 melanoma
  GI50: 3.62 µM
  TGI: > 50 µM
CCRF-CEM leukemia
  GI50: 0.117 µM
  TGI: > 50 µM
HOP-92 NSCLC
  GI50: 0.167 µM
  TGI: 1.43 µM
SF-539 CNS
  GI50: 0.46 µM
  TGI: > 50 µM
M14 melanoma
  GI50: 0.235 µM
  TGI: 2.23 µM
RPMI-8226 leukemia
  GI50: 1.63 µM
  TGI: > 50 µM
OVCAR-5 ovarian
  GI50: 1.24 µM
  TGI: > 50 µM
MCF7 breast
  GI50: 0.37 µM
  TGI: > 50 µM

## Cc1cccc(C)c1NC(=O)C(=O)Cc1nc2ccccc2s1
UACC-62 melanoma
  TGI: > 100 µM
UACC-257 melanoma
  TGI: > 100 µM
CCRF-CEM leukemia
  TGI: > 100 µM
HOP-92 NSCLC
  TGI: > 100 µM
SF-539 CNS
  TGI: > 100 µM
M14 melanoma
  TGI: > 100 µM
RPMI-8226 leukemia
  TGI: > 100 µM
OVCAR-5 ovarian
  TGI: > 100 µM

## COc1ccc(-c2ccc(CC(=O)O)cc2)cc1OC
UACC-62 melanoma
  TGI: > 100 µM
UACC-257 melanoma
  TGI: > 100 µM
CCRF-CEM leukemia
  TGI: > 100 µM
HOP-92 NSCLC
  TGI: > 100 µM
M14 melanoma
  TGI: > 100 µM
RPMI-8226 leukemia
  TGI: > 100 µM
OVCAR-5 ovarian
  TGI: > 100 µM

## CCCCCCCC(=O)OCC/C=C/C1OC1C1OC(=O)/C=C\C=C\C(=O)N(C(C)=O)C(=O)/C=C(/C)CCC2OC2C1OC(=O)NC(C)=O (stereo not drawn)
UACC-62 melanoma
  GI50: 6.27 µM
  TGI: > 25 µM
UACC-257 melanoma
  GI50: 9.38 µM
  TGI: > 25 µM
CCRF-CEM leukemia
  GI50: 0.734 µM
  TGI: > 25 µM
HOP-92 NSCLC
  GI50: 0.823 µM
  TGI: 7.38 µM
SF-539 CNS
  GI50: 3.68 µM
  TGI: 7.36 µM
M14 melanoma
  GI50: 6.83 µM
  TGI: > 25 µM
RPMI-8226 leukemia
  GI50: 0.959 µM
  TGI: 4.03 µM
OVCAR-5 ovarian
  GI50: 4.88 µM
  TGI: 11.5 µM
MCF7 breast
  GI50: 1.7 µM
  TGI: 11.5 µM

## CC(=O)Nc1ccc(C2CC(c3ccc([N+](=O)[O-])cc3)=Nc3ccccc3S2)cc1 (stereo not drawn)
UACC-62 melanoma
  TGI: 32.1 µM
UACC-257 melanoma
  TGI: 29.2 µM
CCRF-CEM leukemia
  TGI: 56 µM
SF-539 CNS
  TGI: 33.5 µM
M14 melanoma
  TGI: 27.6 µM
OVCAR-5 ovarian
  TGI: 41.5 µM

## COc1ccc(-n2cc(-c3ccc(OC)c(OC)c3)[nH]c2=O)cc1
UACC-62 melanoma
  GI50: > 100 µM
  TGI: > 100 µM
CCRF-CEM leukemia
  GI50: > 100 µM
  TGI: > 100 µM
HOP-92 NSCLC
  GI50: > 100 µM
  TGI: > 100 µM
T-47D breast
  GI50: > 100 µM
  TGI: > 100 µM
M14 melanoma
  GI50: > 100 µM
  TGI: > 100 µM
RPMI-8226 leukemia
  GI50: > 100 µM
  TGI: > 100 µM
OVCAR-5 ovarian
  GI50: > 100 µM
  TGI: > 100 µM
MCF7 breast
  GI50: > 100 µM
  TGI: > 100 µM

## CN(C)C(=S)/N=c1\ss/c(=N\C(=S)N(C)C)n1-c1cccc(Cl)c1
UACC-62 melanoma
  TGI: > 100 µM
UACC-257 melanoma
  TGI: > 100 µM
CCRF-CEM leukemia
  TGI: > 100 µM
SF-539 CNS
  TGI: > 100 µM
M14 melanoma
  TGI: > 100 µM
RPMI-8226 leukemia
  TGI: > 100 µM
OVCAR-5 ovarian
  TGI: > 100 µM

Source: PubChem BioAssay (NCI)
